# From patent publication US12559495B2 (Agency for Science, Technology and Research, priority 2013, dated 2026)
# pIC50: −log10 of the molar value.
# Tested on: HEK293-STF3A cells
# Assay: STF3A assay (luciferase reporter)
# Assay type: cell-based
# Conditions: Homo sapiens, 24 h, 1 day of treatment
# Description: HEK293-STF cell line was modified from Human embryonic kidney cell line HEK293 transfected with the STF reporter. HEK293-STF3A cell line was further modified from HEK293-STF cell line to express Wnt3A. This cell line was used to identify compounds that regulate either early or late signalling components of the Wnt pathway. L-Wnt3A (ATCC, #CRL-2647) cell line was used for providing Wnt3A conditioned media. The three cell lines were grown in DMEM (Dulbecco's Modified Eagle Medium) with 10% FBS (fetal bovine serum) incubated in 37° C. with 5% CO2. 2×10^4 HEK293-STF3A cells in 75 μl culture media were seeded in each well of white 96 well plates (Greiner #655098) and incubated overnight at 37° C. 25 μl serially diluted compound was added to the cells to give final concentration of 50 μM to 1.5 nM. After 1 day of treatment, 100 μl of Steady-Glo® Luciferase Assay reagent (#E2520, Promega) was added to each well and incubated for 10 minutes at room temperature. Luminescence was measured using Tecan Safire2® plate reader.
row,Structure (SMILES),pIC50
1,"CC(C(=O)Nc1ccc(-c2ccc(F)cc2)nn1)n1cnc2c1c(=O)n(C)c(=O)n2C (centres unmarked) [Compound 78, 2-(1,3-dimethyl-2,6-dioxo-2,3-dihydro-1H-purin-7(6H)-yl)-N-(6-(4-fluorophenyl)pyridazin-3-yl)propanamide]",> 6.00
2,"COC(=O)c1ccc(-c2ccc(NC(=O)Cn3cnc4c3c(=O)n(C)c(=O)n4C)cc2)cc1 [Compound 38, methyl 4′-(2-(1,3-dimethyl-2,6-dioxo-2,3-dihydro-1H-purin-7(6H)-yl)acetamido)biphenyl-4-carboxylate]",> 7.00
3,"Cn1c(=O)c2c(ncn2CC(=O)Nc2ccc(-c3ncco3)cc2)n(C)c1=O [Compound 24, 2-(1,3-dimethyl-2,6-dioxo-2,3-dihydro-1H-purin-7(6H)-yl)-N-(4-(oxazol-2-yl)phenyl)acetamide]",> 6.00
4,"Cn1c(=O)c2c(nc(-c3cccs3)n2CC(=O)Nc2ccc(-c3ccsc3)cc2)n(C)c1=O [Compound 75, 2-(1,3-dimethyl-2,6-dioxo-8-(thiophen-2-yl)-2,3-dihydro-1H-purin-7(6H)-yl)-N-(4-(thiophen-3-yl)phenyl)acetamide]",> 6.00
5,"Cn1c(=O)c2c(ncn2CC(=O)Nc2ccc(N3CCN(C(=O)c4ccccc4)CC3)cn2)n(C)c1=O [Compound 45, N-(5-(4-benzoylpiperazin-1-yl)pyridin-2-yl)-2-(1,3-dimethyl-2,6-dioxo-2,3-dihydro-1H-purin-7(6H)-yl)acetamide]",> 7.00
6,"Cn1c(=O)c2c(ncn2CC(=O)Nc2ccc(-c3cccnc3)cc2)n(C)c1=O [Compound 26, 2-(1,3-dimethyl-2,6-dioxo-2,3-dihydro-1H-purin-7(6H)-yl)-N-(4-(pyridin-3-yl)phenyl)acetamide]",> 7.00
7,"Cn1c(=O)c2c(ncn2CCC(=O)Nc2ccc(-c3nccs3)cc2)n(C)c1=O [Compound 93, 3-(1,3-dimethyl-2,6-dioxo-1,2,3,6-tetrahydro-7H-purin-7-yl)-N-(4-(thiazol-2-yl)phenyl)propanamide]",> 6.00
8,"Cn1c(=O)c2c(ncn2CC(=O)Nc2ccc(-c3cncs3)cc2)n(C)c1=O [Compound 1, 2-(1,3-dimethyl-2,6-dioxo-2,3-dihydro-1H-purin-7(6H)-yl)-N-(4-(thiazol-5-yl)phenyl)acetamide]",> 7.00
9,"Cn1c(=O)c2c(ncn2CC(=O)Nc2ccc(-c3cccs3)cc2)n(C)c1=O [Compound 89, 2-(1,3-dimethyl-2,6-dioxo-1,2,3,6-tetrahydro-7H-purin-7-yl)-N-(4-(thiophen-2-yl)phenyl)acetamide]",> 7.00
10,"CCC(C(=O)Nc1ccc(-c2ccsc2)cc1)n1cnc2c1c(=O)n(C)c(=O)n2C (centres unmarked) [Compound 64, 2-(1,3-dimethyl-2,6-dioxo-2,3-dihydro-1H-purin-7(6H)-yl)-N-(4-(thiophen-3-yl)phenyl)butanamide]",> 7.00
11,"Cn1c(=O)c2c(nc(Br)n2CC(=O)Nc2ccc(-c3ccsc3)cc2)n(C)c1=O [Compound 76, 2-(8-bromo-1,3-dimethyl-2,6-dioxo-2,3-dihydro-1H-purin-7(6H)-yl)-N-(4-(thiophen-3-yl)phenyl)acetamide]",> 7.00
12,"Cc1nc2c(c(=O)n(C)c(=O)n2C)n1CC(=O)Nc1ccc(-c2ccsc2)cc1 [Compound 66, N-(4-(thiophen-3-yl)phenyl)-2-(1,3,8-trimethyl-2,6-dioxo-2,3-dihydro-1H-purin-7(6H)-yl)acetamide]",> 7.00
13,"Cn1c(=O)c2c(ncn2CC(=O)Nc2ccc(-c3ccc(F)cc3)cn2)n(C)c1=O [Compound 37, 2-(1,3-dimethyl-2,6-dioxo-2,3-dihydro-1H-purin-7(6H)-yl)-N-(5-(4-fluorophenyl)pyridin-2-yl)acetamide]",> 7.00
14,"C[C@H](C(=O)Nc1ccc(-c2nccs2)cn1)n1cnc2c1c(=O)n(C)c(=O)n2C [Compound 83, (R)-2-(1,3-dimethyl-2,6-dioxo-1,2,3,6-tetrahydro-7H-purin-7-yl)-N-(5-(thiazol-2-yl)pyridin-2-yl)propanamide]",> 5.00
